{"source": "ChEMBL document CHEMBL3046316", "about": "“Synthesis and Acaricidal Activity of N-(1,3,4-Thiadiazol-2-yl)pyrazole-5-carboxamides and N-(1,3,4-Thiadiazol-2-yl)thiazole-5-carboxamides” (2003)"}
{"system": "Tetranychus urticae", "test": "Acaricidal activity against Tetranychus urticae (two-spotted spider mite) assessed as mite mortality at 50 ppm relative to untreated control", "type": "functional", "units": {"mortality at 50 ppm": "%"}}
{"smiles": "Cc1nc(C(C)(C)C)sc1C(=O)Nc1nnc(C(F)(F)C(F)(F)C(F)(F)F)s1", "mortality at 50 ppm": "> 80"}
{"smiles": "Cc1nc(C(C)(C)C)sc1C(=O)Nc1nnc(C(F)(F)C(F)(F)F)s1", "mortality at 50 ppm": "> 80"}
{"smiles": "Cc1nc(C(C)(C)C)sc1C(=O)Nc1nnc(C(F)(F)C(F)(F)C(F)(F)C(F)(F)F)s1", "mortality at 50 ppm": "> 80"}
{"smiles": "Cn1nc(C(C)(C)C)c(Cl)c1C(=O)Nc1nnc(C(F)(F)F)s1", "mortality at 50 ppm": "> 80"}
{"smiles": "Cn1nc(C(C)(C)C)c(Cl)c1C(=O)Nc1nnc(C(F)(F)C(F)(F)F)s1", "mortality at 50 ppm": "> 80"}
{"smiles": "Cn1nc(C(C)(C)C)c(Cl)c1C(=O)Nc1nnc(C(F)(F)C(F)(F)C(F)(F)F)s1", "mortality at 50 ppm": "> 80"}
{"smiles": "Cn1nc(C(C)(C)C)c(Cl)c1C(=O)Nc1nnc(C(F)(F)C(F)(F)C(F)(F)C(F)(F)F)s1", "mortality at 50 ppm": "> 80"}
{"smiles": "Cn1nc(C(C)(C)C)c(Cl)c1C(=O)Nc1nnc(C(F)(F)C(F)(F)C(F)(F)C(F)(F)C(F)(F)F)s1", "mortality at 50 ppm": "> 80"}
{"system": "Tetranychus urticae", "test": "Acaricidal activity against Tetranychus urticae (two-spotted spider mite) assessed as mite mortality at 200 ppm relative to untreated control", "type": "functional", "units": {"mortality at 200 ppm": "%"}}
{"smiles": "CCC(C)c1nn(C)c(C(=O)Nc2nnc(C(F)(F)F)s2)c1Cl", "note": "(stereo unspecified)", "mortality at 200 ppm": "> 80"}
{"smiles": "Cn1nc(C(C)(C)C)c(Br)c1C(=O)Nc1nnc(C(F)(F)F)s1", "mortality at 200 ppm": "> 80"}
{"smiles": "Cc1nn(C)c(C(=O)Nc2nnc(C(F)(F)F)s2)c1Cl", "mortality at 200 ppm": "> 80"}
{"smiles": "CCc1nn(C)c(C(=O)Nc2nnc(C(F)(F)F)s2)c1Cl", "mortality at 200 ppm": "> 80"}
{"smiles": "CCCc1nn(C)c(C(=O)Nc2nnc(C(F)(F)F)s2)c1Cl", "mortality at 200 ppm": "> 80"}
{"smiles": "CC(C)c1nn(C)c(C(=O)Nc2nnc(C(F)(F)F)s2)c1Cl", "mortality at 200 ppm": "> 80"}
{"smiles": "CC(C)Cc1nn(C)c(C(=O)Nc2nnc(C(F)(F)F)s2)c1Cl", "mortality at 200 ppm": "> 80"}
{"system": "Tetranychus urticae", "test": "Acaricidal activity against Tetranychus urticae (two-spotted spider mite) assessed as mite mortality at 500 ppm relative to untreated control", "type": "functional", "units": {"mortality at 500 ppm": "%"}}
{"smiles": "Cc1nc(C)c(C(=O)Nc2nnc(C(F)(F)C(F)(F)C(F)(F)F)s2)s1", "mortality at 500 ppm": "> 80"}
{"smiles": "CCc1nc(C)c(C(=O)Nc2nnc(C(F)(F)C(F)(F)C(F)(F)F)s2)s1", "mortality at 500 ppm": "< 80"}
{"smiles": "Cc1nc(C(C)C)sc1C(=O)Nc1nnc(C(F)(F)C(F)(F)C(F)(F)F)s1", "mortality at 500 ppm": "< 80"}
{"smiles": "Cc1nc(C(C)(C)C)sc1C(=O)Nc1nnc(C(F)(F)F)s1", "mortality at 500 ppm": "< 80"}
{"smiles": "Cn1nc(C(C)(C)C)cc1C(=O)Nc1nnc(C(F)(F)F)s1", "mortality at 500 ppm": "< 80"}
{"smiles": "Cn1nc(C(C)(C)C)c(I)c1C(=O)Nc1nnc(C(F)(F)F)s1", "mortality at 500 ppm": "< 80"}
{"smiles": "Cn1nc(C(C)(C)C)c(Cl)c1C(=O)Nc1nnc(C(F)F)s1", "mortality at 500 ppm": "< 80"}
{"smiles": "Cn1nc(C(C)(C)C)c(Cl)c1C(=O)Nc1nnc(C(F)(F)C(F)F)s1", "mortality at 500 ppm": "< 80"}
{"smiles": "Cn1nc(C(C)(C)C)c(Cl)c1C(=O)Nc1nnc(C(F)(F)C(F)(F)C(F)(F)C(F)(F)C(F)(F)C(F)(F)F)s1", "mortality at 500 ppm": "< 80"}
{"smiles": "Cn1nc(C2CC2)c(Cl)c1C(=O)Nc1nnc(C(F)(F)F)s1", "mortality at 500 ppm": "> 80"}
{"smiles": "CCCCc1nn(C)c(C(=O)Nc2nnc(C(F)(F)F)s2)c1Cl", "mortality at 500 ppm": "> 80"}
